Measured values as given in patent US20220386606A1, “SPECIFICALLY SUBSTITUTED 3-PHENYL-5-SPIROCYCLOPENTYL-3-PYRROLIN-2-ONES AND THEIR USE AS HERBICIDES” (Bayer Aktiengesellschaft, priority 2019, published 2022).

Legend:
DIGSA [1] = assay: Pre-emergence herbicidal action against DIGSA; assay type: in vivo, Digitaria sanguinalis; settings: 320 g/ha, scored visually after 3 weeks vs untreated controls
Summary of the method: (§1)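 Visual scoring after 3 weeks in the greenhouse gives percent activity (100% = dead, 0% = like untreated). Compounds, formulated as WP or EC, were applied to the soil surface over freshly sown seeds in sandy loam, water rate 600 to 800 L/ha plus 0.2% wetting agent.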

ALOMY [2] = assay: Pre-emergence herbicidal action against ALOMY; assay type: in vivo, Alopecurus myosuroides; settings: 320 g/ha, scored visually after 3 weeks vs untreated controls
Summary of the method: as §1

AVEFA [3] = assay: Post-emergence herbicidal action against AVEFA; assay type: in vivo, Avena fatua; settings: 80 g/ha, visual assessment after about 3 weeks
Summary of the method: (§2)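 Weeds and crops grown in sandy loam in the greenhouse, treated post-emergence at the one-leaf stage (2–3 weeks after sowing). WP or EC formulations sprayed as aqueous suspension/emulsion at 600–800 l/ha water with 0.2% wetting agent. Visual % activity scored after about 3 weeks versus untreated controls (100% = dead, 0% = like control).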

AMARE = assay: Pre-emergence herbicidal action against AMARE; assay type: in vivo, Amaranthus retroflexus; settings: 320 g/ha
Summary of the method: as §1

LOLRI [4] = assay: Post-emergence herbicidal action against LOLRI; assay type: in vivo, Lolium rigidum; settings: 80 g/ha, visual assessment about 3 weeks after treatment vs untreated controls
Summary of the method: as §2

ABUTH = assay: Post-emergence herbicidal action against ABUTH; assay type: in vivo, Abutylon threophrasti; settings: 80 g/ha, visual assessment about 3 weeks after treatment vs untreated controls
Method: Seeds of monocotyledonous and dicotyledonous weed and crop plants are laid out in sandy loam soil in wood-fiber pots, covered with soil and cultivated in a greenhouse under good growth conditions. 2 to 3 weeks after sowing, the test plants are treated at the one-leaf stage. The compounds of the invention, formulated in the form of wettable powders (WP) or as emulsion concentrates (EC), are then sprayed onto the green parts of the plants as aqueous suspension or emulsion at a water application rate equating to 600 to 800 l/ha with addition of 0.2% wetting agent. After the test plants have been left to stand in the greenhouse under optimal growth conditions for about 3 weeks, the action of the preparations is assessed visually in comparison to untreated controls (herbicidal action in percent (%): 100% activity=the plants have died, 0% activity=like control plants).

VIOTR = assay: Pre-emergence herbicidal action against VIOTR; assay type: in vivo, Viola tricolor; settings: 320 g/ha
Summary of the method: as §1

DIGSA [5] = assay: Post-emergence herbicidal action against DIGSA; assay type: in vivo, Digitaria sanguinalis; settings: 80 g/ha, visual assessment about 3 weeks after treatment vs untreated controls
Summary of the method: as §2

LOLRI [6] = assay: Pre-emergence herbicidal action against LOLRI (Table 8, titled post-emergence at 320 g/ha); assay type: in vivo, Lolium rigidum; settings: table stands in the pre-emergence section
Summary of the method: as §1

ALOMY [7] = assay: Post-emergence herbicidal action against ALOMY; assay type: in vivo, Alopecurus myosuroides; settings: 80 g/ha, visual assessment after about 3 weeks
Summary of the method: as §2

SETVI [8] = assay: Pre-emergence herbicidal action against SETVI; assay type: in vivo, Setaria viridis; settings: 320 g/ha, scored visually after 3 weeks vs untreated controls
Summary of the method: as §1

ECHCG [9] = assay: Post-emergence herbicidal action against ECHCG; assay type: in vivo, Echinochloa crus-galli; settings: 80 g/ha, visual assessment about 3 weeks after treatment vs untreated controls
Summary of the method: as §2

MATIN = assay: Pre-emergence herbicidal action against MATIN; assay type: in vivo; settings: 320 g/ha
Description: (§3) Seeds of monocotyledonous and dicotyledonous weed plants and crop plants are laid out in sandy loam soil in wood-fiber pots and covered with soil. The compounds of the invention, formulated in the form of wettable powders (WP) or as emulsion concentrates (EC), are then applied to the surface of the covering soil as aqueous suspension or emulsion at a water application rate equating to 600 to 800 L/ha with addition of 0.2% wetting agent.
(§4) After the treatment, the pots are placed in a greenhouse and kept under good growth conditions for the trial plants. The damage to the test plants is scored visually after a test period of 3 weeks by comparison with untreated controls (herbicidal activity in percent (%): 100% activity=the plants have died, 0% activity=like control plants).

AVEFA [10] = assay: Pre-emergence herbicidal action against AVEFA; assay type: in vivo, Avena fatua; settings: 320 g/ha, scored visually after 3 weeks vs untreated controls
Summary of the method: as §1

ECHCG [11] = assay: Pre-emergence herbicidal action against ECHCG; assay type: in vivo, Echinochloa crus-galli; settings: 320 g/ha, scored visually after 3 weeks vs untreated controls
Summary of the method: as §1

SETVI [12] = assay: Post-emergence herbicidal action against SETVI; assay type: in vivo, Setaria viridis; settings: 80 g/ha, visual assessment about 3 weeks after treatment vs untreated controls
Summary of the method: as §2

VERPE = assay: Pre-emergence herbicidal action against VERPE; assay type: in vivo, Veronica persica; settings: 320 g/ha
Summary of the method: as §1

POLCO = assay: Pre-emergence herbicidal action against POLCO; assay type: in vivo, Polygonum convolvulus; settings: 320 g/ha
Description: as §3, §4

SMILES	Pre-emergence action against DIGSA in % (DIGSA [1]) [%]	Pre-emergence action against ALOMY in % (ALOMY [2]) [%]	Post-emergence action against AVEFA in % (AVEFA [3]) [%]	Pre-emergence action against AMARE in % (AMARE) [%]	Post-emergence action against LOLRI in % (LOLRI [4]) [%]	Post-emergence action against ABUTH in % (ABUTH) [%]	Pre-emergence action against VIOTR in % (VIOTR) [%]	Post-emergence action against DIGSA in % (DIGSA [5]) [%]	Pre-emergence herbicidal action against LOLRI in % (LOLRI [6]) [%]	Post-emergence action against ALOMY in % (ALOMY [7]) [%]	Pre-emergence action against SETVI in % (SETVI [8]) [%]	Post-emergence action against ECHCG in % (ECHCG [9]) [%]	Pre-emergence action against MATIN in % (MATIN) [%]	Pre-emergence action against AVEFA in % (AVEFA [10]) [%]	Pre-emergence action against ECHCG in % (ECHCG [11]) [%]	Post-emergence action against SETVI in % (SETVI [12]) [%]	Pre-emergence action against VERPE in % (VERPE) [%]	Pre-emergence action against POLCO in % (POLCO) [%]
CC#Cc1cc(C)c(C2=C(O)C3(CCC(COCC)C3)NC2=O)c(F)c1 (stereo not shown) [Example I-35]	100	100	80	90	100	80	100	100	100	100	100	100						
CC#Cc1cc(F)c(C2=C(O)C3(CCC(COCC)C3)NC2=O)c(OC)c1 (stereo not shown) [Example I-42]	100		90		90	80	80	100	100	90	100	100	80	90	80	100		
CC#Cc1cc(Br)c(C2=C(O)C3(CCC(COC)C3)NC2=O)c(OCC)c1 (stereo not shown) [Example I-69]	100	100			100		90	90	100	100	100	100		90	100		80	100
CC#Cc1cc(Br)c(C2=C(OC(=O)C(C)C)C3(CCC(COC)C3)NC2=O)c(OC)c1 (stereo not shown) [Example P-04]	100	100		80	100	80	100	100	100	100	100	100	90	100		100	90	
CC#Cc1cc(Br)c(C2=C(OC(=O)C(C)C)C3(CCC(COCC)C3)NC2=O)c(OC)c1 (stereo not shown) [Example P-23]	100	100		90	90	80	100	100	100	100	100	100		100	100	100	90	
CC#Cc1cc(C)c(C2=C(OC(=O)OCC)C3(CCC(COCC)C3)NC2=O)c(F)c1 (stereo not shown) [Example P-53]	100	100	90		100	80	80	100	100	100	100	100	90	90	100			
CC#Cc1cc(F)c(C2=C(OC(=O)OCC)C3(CCC(COCC)C3)NC2=O)c(OC)c1 (stereo not shown) [Example P-61]	100	100	80		100	80		100	100	90	100	100		90	100	100	90	
CC#Cc1cc(F)c(C2=C(OC(=O)C(C)C)C3(CCC(COCC)C3)NC2=O)c(OC)c1 (stereo not shown) [Example P-64]	100	100	80		100	80		100	100	100	100	100		80	90	100		
CC#Cc1cc(C)c(C2=C(OC(=O)OCC)C3(CCC(COCCOC)C3)NC2=O)c(Cl)c1 (stereo not shown) [Example P-76]	100	100	90	100	100		100	90	100	100	100	100		100	100	100	100	100
CC#Cc1cc(Br)c(C2=C(OC(=O)OCC)C3(CCC(COCC)C3)NC2=O)c(OCC)c1 (stereo not shown) [Example P-89]	100	100			90		80	90	100	100	100	100		100	100	100		100
